Source: ChEMBL document CHEMBL3045987, “Antitussive effects of azepino[2,1-b]quinazolones” (Med Chem Res, 2012)
Active and inactive are the calls of the source. The calls are words filed in the database; no cut-off is given here.

Legend:
Format in all cases: functional, organism-based
Cavia porcellus [1] = experiment: Antitussive activity against citric acid-induced cough in Cavia porcellus albino (guinea pig) model assessed as increase in cough latency at 5 to 20 mg/kg, ip administered 30 min before aersol of citric acid for 10 min
Cavia porcellus [2] = experiment: Antitussive activity against citric acid-induced cough in Cavia porcellus albino (guinea pig) model assessed as decrease in cough frequency per 10 min at 5 to 20 mg/kg, ip administered 30 min before aersol of citric acid for 10 min
Cavia porcellus [3] = experiment: Antitussive activity against citric acid-induced cough in Cavia porcellus albino (guinea pig) model assessed as increase in cough latency at 10 mg/kg, ip administered 30 min before aersol of citric acid for 10 min; design: dose 10 mg/kg
Cavia porcellus [4] = experiment: Antitussive activity against citric acid-induced cough in Cavia porcellus albino (guinea pig) model assessed as decrease in cough frequency per 10 min at 10 mg/kg, ip administered 30 min before aersol of citric acid for 10 min; design: dose 10 mg/kg

| SMILES | Activity (Cavia porcellus [1]) | inhibition (Cavia porcellus [2]) | Activity (Cavia porcellus [3]) | inhibition (Cavia porcellus [4]) |
| --- | --- | --- | --- | --- |
| O=c1c2cc(Br)cc(Br)c2nc2n1CCCCC2 | Active | Active | – | – |
| O=C1c2ccccc2N(Cc2ccccc2)C2CCCCCN12 (centres undefined) | Active | Active | – | – |
| O=c1c2cc(NCc3ccc([N+](=O)[O-])cc3)ccc2nc2n1CCCCC2 | Active | Active | – | – |
| N#Cc1ccc(CNc2ccc3nc4n(c(=O)c3c2)CCCCC4)cc1 | Active | Active | – | – |
| CC(=O)N1c2ccccc2C(=O)N2CCCCCC21 (centres undefined) | Active | Active | – | – |
| CCN1c2ccccc2C(=O)N2CCCCCC21 (centres undefined) | Active | Active | – | – |
| COc1cc(CNc2ccc3nc4n(c(=O)c3c2)CCCCC4)cc(OC)c1OC | Active | Active | – | – |
| COc1ccc(CNc2ccc3nc4n(c(=O)c3c2)CCCCC4)cc1OC | Active | Active | – | – |
| O=c1c2cc(O)cc(O)c2nc2n1CCCCC2 | Active | Active | – | – |
| Nc1ccc2nc3n(c(=O)c2c1)CCCCC3 | Active | Active | – | – |
| O=c1c2ccccc2nc2n1CCCCC2 | Active | Active | – | – |
| O=C1c2ccccc2N(C(=O)c2ccccc2)C2CCCCCN12 (centres undefined) | Active | Active | – | – |
| COc1ccc2c3c1O[C@H]1[C@@H](O)C=C[C@H]4[C@@H](C2)N(C)CC[C@@]341 | – | – | Active | Active |
| COc1cc(OC)c2nc3n(c(=O)c2c1)CCCCC3 | Active | Active | – | – |
| CN1c2ccccc2C(=O)N2CCCCCC21 (centres undefined) | Active | Active | – | – |
| O=C1c2ccccc2NC2CCCCCN12 (centres undefined) | Active | Active | – | – |
| O=c1c2cc([N+](=O)[O-])ccc2nc2n1CCCCC2 | Active | Active | – | – |
